Source: patent US9663495B2 (YUHAN CORPORATION, priority 2013, dated 2017)
pEC50: −log10 of the molar value.

Columns and labels:
GPR119 [1] = target: T1, GPR119 (Homo sapiens, UniProt Q8TDV5); test: cAMP Accumulation Assay (GPR119 CRE-bla CHO-K1 cells, LiveBLAzer-FRET B/G); format: cell-based; settings: for pEC50: 5 hours incubation; for Emax (Fold): maximum activity, response ratio versus non-treated control group
T1 construct: host or cells: CHO-K1 (GPR119 CRE-bla, doxycycline-induced)
T1 sequence (Q8TDV5 1-335): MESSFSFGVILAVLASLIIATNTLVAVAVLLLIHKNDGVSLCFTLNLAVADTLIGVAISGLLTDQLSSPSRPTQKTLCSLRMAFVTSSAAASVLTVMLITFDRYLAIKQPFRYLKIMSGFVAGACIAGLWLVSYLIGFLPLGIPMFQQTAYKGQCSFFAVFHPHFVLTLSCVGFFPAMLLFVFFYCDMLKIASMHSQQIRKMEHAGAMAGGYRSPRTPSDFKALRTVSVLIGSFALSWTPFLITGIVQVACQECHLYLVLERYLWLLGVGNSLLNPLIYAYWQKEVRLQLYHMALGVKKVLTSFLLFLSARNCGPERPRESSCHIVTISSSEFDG

male C57BL/6 mice = test: Oral Glucose Tolerance Test (OGTT); format: in vivo; set-up: concentration or dose not given beside the values; settings: fasted male C57BL/6 mice, oral administration 30 minutes before oral glucose; AUCglucose 0-120 minutes versus negative control group
Experimental: The oral glucose tolerance test of the compounds according to the present invention was carried out according to the procedures disclosed in Andrikopoulos S, Blair A R, Deluca N, Fam B C, Proietto J, Am J Physiol Endocrinol Metab. 2008, Vol 295, E1323-1332. Briefly, male C57BL/6 mice at 8 to 9 weeks of age having 20 g to 25 g of body weight (Orient Bio Inc. Korea) were allowed to acclimatize to the surroundings (temperature: 20±2° C., humidity: 40-60%, light/dark cycle: 12 hours) for 1 week. During the acclimatization, the mice were given ad libitum access to feed and water. The mice were fasted from 18 hours before the test, except for allowing free access to water. After measuring the mice′ body weights and blood sugar levels, they were divided into test groups so as to have similar blood sugar levels. The mice were orally administered with a mixture of test compound and the diluent (0.5% solution of MC1500 (Sigma)). At 30 minutes after the administration, the mice were also orally administered with 20% glucose solution in an amount of 0.1 ml per 10 g of body weight. The blood samples were taken from the tail vain at 0 (right before the administration of the glucose solution), 15, 30, 60, 90, and 120 minutes after the administration of the glucose solution; and the blood sugar levels thereof were measured with a blood glucose test meter (GlucoDr. AGM-3000, All Medicus Co. Ltd.). The graph for blood sugar level on time for each test compound was plotted from the respective blood sugar values; and then area under the curve (AUCglucose) was determined. The inhibition rate of blood sugar (%) was calculated from the following formula. Inhibition rate of blood sugar (%)=[(AUCglucose of the negative control group−AUCglucose of the test group)/AUCglucose of the negative control group]×100

GPR119 [2] = target: T1, GPR119; test: cAMP Accumulation Assay (GPR119 CRE-bla CHO-K1 cells, LiveBLAzer-FRET B/G); format: cell-based; settings: (Emax of the test compound/Emax of MBX-2982)x100, 5 hours incubation

pEC50 (GPR119 [1])	Emax (Fold) (GPR119 [1])	Emax (% RR) (GPR119 [2])	Compound	Inhibition rate of blood sugar (%) (male C57BL/6 mice)
8.36	4.0 Fold	125.7 % RR	CCc1cnc(N2CCN(c3ncc(-c4ccc(-n5cnn([C@@H]6CCOC6)c5=O)c(F)c4)cc3C#N)CC2)nc1 [Example 33, (R)-2-(4-(5-ethylpyrimidin-2-yl)piperazin-1-yl)-5-(3-fluoro-4-(5-oxo-1-(tetrahydrofuran-3-yl)-1H-1,2,4-triazol-4(5H)-yl)phenyl)nicotinonitrile]	20.9%
8.40	2.7 Fold	109.1 % RR	CCCn1ncn(-c2ccc(-c3cnc(N4CCN(C(=O)OC(C)(C)C)C[C@@H]4C)c(C#N)c3)cc2F)c1=O [Example 5, (S)-tert-butyl 4-(3-cyano-5-(3-fluoro-4-(5-oxo-1-propyl-1H-1,2,4-triazol-4(5H)-yl)phenyl)pyridin-2-yl)-3-methylpiperazin-1-carboxylate]	21.9%
7.23	2.9 Fold	123.9 % RR	C[C@H]1CN(C(=O)OC(C)(C)C)CCN1c1ncc(-c2ccc(-n3cnn(C)c3=O)c(F)c2)cn1 [Example 1, (S)-tert-butyl 4-(5-(3-fluoro-4-(1-methyl-5-oxo-1H-1,2,4-triazol-4(5H)-yl)phenyl)pyrimidin-2-yl)-3-methylpiperazin-1-carboxylate]	22.3%
8.10	2.6 Fold	104.5 % RR	CCc1cnc(N2CCN(c3ncc(-c4ccc(-n5cnn(CCN(CC)CC)c5=O)c(F)c4)cc3C#N)[C@@H](C)C2)nc1 [Example 10, (S)-5-(4-(1-(2-(diethylamino)ethyl)-5-oxo-1H-1,2,4-triazol-4(5H)-yl)-3-fluorophenyl)-2-(4-(5-ethylpyrimidin-2-yl)-2-methylpiperazin-1-yl)nicotinonitrile]	23.8%
8.08	3.2 Fold	113.8 % RR	CCc1cnc(N2CCN(c3ncc(-c4ccc(-n5cnn([C@@H]6CCNC6)c5=O)c(F)c4)cc3C#N)CC2)nc1 [Example 34, (R)-2-(4-(5-ethylpyrimidin-2-yl)piperazin-1-yl)-5-(3-fluoro-4-(5-oxo-1-(pyrrolidin-3-yl)-1H-1,2,4-triazol-4(5H)-yl)phenyl)nicotinonitrile]	25.1%
7.80	3.7 Fold	126.7 % RR	COCCn1ncn(-c2ccc(-c3cnc(N4CCC(c5noc(C(C)C)n5)CC4)c(C#N)c3)cc2)c1=O [Example 69, 2-(4-(5-isopropyl-1,2,4-oxadiazol-3-yl)piperidin-1-yl)-5-(4-(1-(2-methoxyethyl)-5-oxo-1H-1,2,4-triazol-4(5H)-yl)phenyl)nicotinonitrile]	25.8%
8.30	3.5 Fold	124.5 % RR	CCc1cnc(N2CCN(c3ncc(-c4ccc(-n5cnn(CCN6CCOCC6)c5=O)c(F)c4)cc3C#N)[C@@H](C)C2)nc1 [Example 15, (S)-2-(4-(5-ethylpyrimidin-2-yl)-2-methylpiperazin-1-yl)-5-(3-fluoro-4-(1-(2-morpholinoethyl)-5-oxo-1H-1,2,4-triazol-4(5H)-yl)phenyl)nicotinonitrile]	21.7%
8.09	3.2 Fold	115.1 % RR	CCc1cnc(N2CCN(c3ncc(-c4ccc(-n5cnn(CCN)c5=O)c(F)c4)cc3C#N)[C@@H](C)C2)nc1.Cl [Example 17, (S)-5-(4-(1-(2-aminoethyl)-5-oxo-1H-1,2,4-triazol-4(5H)-yl)-3-fluorophenyl)-2-(4-(5-ethylpyrimidin-2-yl)-2-methylpiperazin-1-yl)nicotinonitrile hydrochloride]	18.2%
